Measurements reported in patent US10517842B2, “Methods of modulating miRNA levels and compositions for use in the same” (Los Angeles Biomedical Research Institute at Harbor-UCLA …, priority 2017, dated 2019).

What was measured:
Format in all cases: cell-based, human
3′UTR of COL3A1 = assay: 3′UTR luciferase reporter assay in LSMC; conditions: Tranilast 200 μM vs DMSO set as 1, 48 hrs before and 48 hrs after transfection, LSMC; P<0.05
Description: LSMC were seeded at 3.5×10^4 cells/well in 6-well plates and at sub-confluence were treated with Tranilast (200 μM) or DMSO as control for 48 hrs. Tranilast and DMSO-treated cells were then transfected with luciferase reporter plasmids (1 μg/well) containing 3′ UTR sequences for COL3A1 or CDK2 (GeneCopoeia, Inc., Rockville, Md.) using PureFection transfection reagent (System Biosciences, Inc., Palo Alto, Calif.). After 48 hrs of transfection Firefly and Renilla luciferase activities were measured using the Dual-Luciferase Reporter Assay System (Promega). Firefly luciferase activity was normalized to Renilla luciferase activity. The level of induction was reported as mean±SEM of three experiments and compared with a ratio in cells treated with DMSO independently set as 1.
FIG. 10A: The relative luciferase activity in LSMC treated with Tranilast (200 μM) or DMSO as control for 48 hrs prior to transfection with Renilla and Firefly luciferase reporter plasmids carrying a 3′UTR fragment of COL3A1, CDK2 or IL8 and incubated with Tranilast (200 μM) or DMSO containing medium after transfection for another 48 hrs. The relative luciferase activity is presented as the ratio of Firefly:Renilla as compared to DMSO which was independently set as 1. The results are presented as mean±SEM of at least three sets of independent experiments using LSMC isolated from 3 patients. FIG. 10B: Protein expression of COL3A1 and CDK2 was determined after transfection of anti-miR scrambled oligonucleotides (aNC) or anti-miR-29c oligonucleotides (a29c) in LSMC for 72 hrs with DMSO or Tranilast (200 μM) treatment for the last 48 hrs. GAPDH was used as loading control. The result is one representative of at least three sets of independent experiments using LSMC isolated from 3 patients. FIG. 10C: The bar graph presented the relative band densities as mean±SEM of at least three independent experiments. Inhibition of protein expression by Tranilast treatment was calculated relative to changes in corresponding DMSO controls in cells transfected with aNC or anti-miR-29c.

caspase 3/7 = assay: Caspase-3/7 activity assay (Apo-One) in LSMC; conditions: Tranilast 200 μM, 48 hrs
Description: LSMC were cultured in 96-well plates as mentioned above and at sub-confluence were treated with 200 μM Tranilast for 48 hrs. The caspase 3/7 activity was determined using the Apo-One homogeneous caspase-3/7 assay (Promega, Madison, Wis.) after the indicated time periods according to the manufacturer's protocol. The Apo-One caspase-3/7 reagent was added in a 1:1 ratio with the medium, and the rate of caspase-3/7 activity was determined by measuring the fluorescence using a multi-plate reader (Molecular Devices, Inc., Sunnyvale, Calif.) at an excitation of 485 nm and an emission of 527 nm.

[1] = test system: NF-Kb (p65) binding elements in the miR-200c promoter; assay: CHIP assay, p65 binding in the miR-200c promoter in LSMC; conditions: Tranilast 200 μM, 48 hrs, percent input method
miR-200c promoter = assay: Methylation-specific PCR in LSMC; conditions: Tranilast 200 μM, 24 hrs, Me/Me+Un, P<0.05
Description: (§1) LSMC at sub-confluence were treated with Tranilast (200 μM) for 24 hrs and genomic DNA was extracted and treated with bisulfite (EZ DNA Methylation Kit, Zymo Research Corporation, Irvine, Calif.). Since methylated cytosine residues remained unchanged after bisulfite conversion, this approach allows distinguishing DNA sequences which are methylated or unmethylated in specific genomic regions using sequence-specific PCR primers (Li & Dahiya, “MethPrimer: designing primers for methylation PCRs,” Bioinformatics (2002)18:1427-31). The pair of primers used to detect the methylated (Me) sequence of miR-29c promoter were 5′-[…]-3′ (SEQ ID NO:17) and 5′-[…]-3′ (SEQ ID NO:18) and for the unmethylated (Un) sequence of miR-29c promoter were 5′-[…]-3′ (SEQ ID NO:19) and 5′-[…]-3′ (SEQ ID NO:20). The pair of primers used to detect the methylated (Me) sequence of miR-200c promoter were 5′-[…]-3′ (SEQ ID NO:21) and 5′-[…]-3′ (SEQ ID NO:22), and for the unmethylated (Un) sequence of miR-200c promoter were 5′-[…]-3′ (SEQ ID NO:23) and 5′-[…]-3′ (SEQ ID NO:24). DNA amplification was carried out following manufacturer's protocol (HotStarTaq Plus PCR reagent, Qiagen, Valencia, Calif.). The PCR condition was 5 min at 95° C., followed by 40 cycles of amplification at 94° C. for 30 seconds, 30 seconds at 55° C., and 1 min at 72° C. […]

miR-29c promoter = assay: Methylation-specific PCR in LSMC; conditions: Tranilast 200 μM, 24 hrs, Me/Me+Un, P<0.05
Description: as §1

3′UTR of CDK2 = assay: 3′UTR luciferase reporter assay in LSMC; conditions: Tranilast 200 μM vs DMSO set as 1, 48 hrs before and 48 hrs after transfection, LSMC; P<0.05
miR-200c = assay: Quantitative RT-PCR (TaqMan miRNA assay), cellular and secreted miRNA in LSMC; conditions: Tranilast 200 μM, 48 hours, P<0.05
Description: (§2) Total RNA was extracted from LSMC using RNAzol (GeneCopoeia, Rockville, Md.) and their quantity and quality was determined (ND-1000 Spectrophotometer, NanoDrop Technologies, Wilmington, Del.) as previously described (Chuang & Khorram, “miR-200c Regulates IL8 Expression by Targeting IKBKB: A Potential Mediator of Inflammation in Leiomyoma Pathogenesis,” PloS one (2014) 9:e95370). For medium miRNA extraction, 5 pg of synthetic miR-1 from Caenorhabditis elegans (cel-miR-1) was added as a spike-in control for purification efficiency. Subsequently, 2 μg or 10 ng (for miRNA) was reverse transcribed using random primers for CCND1, CDK2, COL1A1, COL3A1, TGF-β3, DNMT1 and EZH2 or specific primers for miR-29c and miR-200c according to the manufacturer's guidelines (Applied Biosystems, Carlsbad, Calif.). Quantitative RT-PCR was carried out using SYBR gene expression master mix or TaqMan miRNA expression assays (Applied Biosystems). Reactions were incubated for 10 min at 95° C. followed by 40 cycles for 15 seconds at 95° C. and 1 min at 60° C. The level of mRNAs and expression of cellular and secreted miRNA was determined using the Invitrogen StepOne System with 18S, RNU6B and cel-miR-1 used for normalization respectively. All reactions were run in triplicate and relative expression was analyzed with the comparative cycle threshold method (2^−ΔΔCT) according to the manufacturer (Applied Biosystems). Values were expressed as fold change compared to the control group.

miR-29c = assay: as above; conditions: Tranilast 200 μM, 48 hours, P<0.05
Description: as §2

3′UTR activity of COL3A1 (relative luciferase activity, Firefly:Renilla) (3′UTR of COL3A1): suppressed
Caspase 3/7 activity (caspase 3/7): without a significant effect
p65 binding ability in miR-200c promoter [1]: decreased
3′UTR activity of CDK2 (relative luciferase activity, Firefly:Renilla) (3′UTR of CDK2): suppressed
Compound: COc1ccc(C=CC(=O)Nc2ccccc2C(=O)O)cc1OC [Tranilast, 2-[[3-(3,4-dimethoxyphenyl)-1-oxo-2-propenyl]amino]benzoic acid]
methylation status in miR-200c promoter (miR-200c promoter): significantly suppressed
methylation status in miR-29c promoter (miR-29c promoter): significantly suppressed
expression of secreted (medium) miR-200c (miR-200c; LSMC medium): significantly increased
expression of cellular miR-200c (miR-200c; LSMC): significantly increased
expression of secreted (medium) miR-29c (miR-29c; LSMC medium): significantly increased
expression of cellular miR-29c (miR-29c; LSMC): significantly increased
